What was measured:
[1] = cited from earlier work
[2] = test system: Plasmodium falciparum D10 (chloroquine sensitive strain); type: cell-based; conditions: D10, read-out: D10: IC50
[3] = test system: Plasmodium falciparum Dd2 (chloroquine resistant strain); type: cell-based; conditions: DD2, read-out: Dd2: IC50
[4] = test system: heme aggregation; conditions: acetate buffer (pH=4.9)/n-octanol interface; cited from earlier work

IC50 [2] | IC50 [3] | Structure (SMILES) | D(pH=4.9) water/n-octanol distribution coefficient ([1]; pH 4.9) | D(pH=6.6) water/n-octanol distribution coefficient ([1]; pH 6.6) | HAIR50 (drug to hemin ratio required to inhibit 50% of heme aggregation) [4]
30 ± 2 nM | 220 ± 30 nM | Clc1ccc2c(NCCNCc3ccccn3)ccnc2c1 [L^1, N-(2-((pyridin-2-yl)methylamino)ethyl)-7-chloroquinolin-4-amine] | – | – | –
190 ± 30 nM | 250 ± 60 nM | Cn1ccnc1CNCCNc1ccnc2cc(Cl)ccc12 [L^2, N-(2-((1-methyl-1H-imidazol-2-yl)methylamino)ethyl)-7-chloroquinolin-4-amine] | – | – | –
550 ± 300 nM | > 30000 nM | Oc1ccccc1CN=CCNc1ccnc2cc(Cl)ccc12 [L^3, N-(2-((2-hydroxyphenyl)methylimino)ethyl)-7-chloroquinolin-4-amine] | – | – | –
1300 ± 100 nM | 1300 ± 100 nM | Clc1ccc2c(NCCN(Cc3ccccn3)Cc3ccccn3)ccnc2c1 [L^4, N-(2-(bis((pyridin-2-yl)methyl)amino)ethyl)-7-chloroquinolin-4-amine] | – | – | –

Structure (SMILES) | IC50 [2] | IC50 [3] | D(pH=4.9) water/n-octanol distribution coefficient ([1]; pH 4.9) | D(pH=6.6) water/n-octanol distribution coefficient ([1]; pH 6.6) | HAIR50 (drug to hemin ratio required to inhibit 50% of heme aggregation) [4]
CCN(CC)CCCC(C)Nc1ccnc2cc(Cl)ccc12 (stereo not shown) [CQ, chloroquine] | 25 ± 9 nM | 143 ± 14 nM | 0.15 ± 0.01 | 6.61 ± 0.64 | 2.92
